Measured values reported in patent publication JP2009132645A, “アシル化ハイドロキノン配糖体及びそれを含有する皮膚外用剤” (Pola Chemical Industries Inc, priority 2007, dated 2009).

Assay: Cytotoxicity in normal human epidermal melanocytes (trypan blue)
Assay type: cell-based
Conditions: 2 days culture, 0.5% trypan blue, concentration not given, read-out: cytotoxicity (judgement by cell death rate)

Question: For `CCCCCCCCCCC(=O)OC[C@H]1O[C@@H](Oc2ccc(O)cc2)[C@H](O)[C@@H](O)[C@@H]1O` [比較化合物1, 6−O−ウンデカノイルアルブチン], which cytotoxicity at 48 h is on record?
Answer: The cytotoxicity at 48 h was > 50%.
